Source: the supplement of paper PMC8671470

The compounds below were run on THP-1 (assay: cell viability (% survival relative to DMSO control, bortezomib = 0%); higher = less cytotoxic). Details: 100 nM; 72 h.
Outline: (§1)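 Percent survival figures are means of duplicate wells. They were obtained by CellTiter-Glo luminescence after 10 AML and 5 CML cell lines spent 72 h at 37 °C with 5% CO2 in 384-well plates with compounds at 1, 10, 100, 1000 or 10000 nM. Vehicle was set to 100% and a 10 µM positive control to 0%.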

Going from `Nc1nc(Cl)nc2c1ncn2[C@H]1C[C@H](O)[C@@H](CO)O1` [Cladribine] to `NCCCC(N)(C(=O)O)C(F)F` (stereo unspecified) [Difluoromethylornithine], the cell viability falls from 102% to 98.9%.

Same assay, conditions: 1000 nM; 72 h

Going from `COc1ccc(S(=O)(=O)N2CCN(S(=O)(=O)c3ccc4c(c3)OCCO4)CC2)cc1` [BML283] to `O=C1O/C(=C/Br)CCC1c1cccc2ccccc12` (stereo unspecified) [Bromoenol Lactone], the cell viability falls from 98.9% to 81.4%.

Going from `O=c1cc(-c2ccccc2)oc2cc(O)c(O)c(O)c12` [Baicalein] to `O=c1oc2c(O)c(O)cc3c(=O)oc4c(O)c(O)cc1c4c23` [Benzoaric Acid], the cell viability rises from 92.5% to 99.4%.

First: COC(=O)[C@]12CCC(C)(C)C[C@H]1[C@H]1C(=O)C=C3[C@@]4(C)C=C(C#N)C(=O)C(C)(C)[C@@H]4CC[C@@]3(C)[C@]1(C)CC2 [Bardoxolone methyl]
Second: CC(C)c1cc2c(c(O)c1O)[C@@]1(C(=O)O)CCCC(C)(C)[C@@H]1CC2 [Carnosic acid]
The cell viability of the first is lower: 81.6% for the first, 83.9% for the second.

First: Cc1c(-c2ccc(-c3ccccc3F)cc2)nc2ccc(F)cc2c1C(=O)O [Brequinar]
Second: O=C(O)CCCCC(CCSCc1ccccc1)SCc1ccccc1 (stereo unspecified) [CPI-613]
The cell viability of the first is higher: 102% for the first, 93.7% for the second.

First: CCN(CC)CCCC(C)Nc1ccnc2cc(Cl)ccc12 (stereo unspecified) [Chloroquine]
Second: Nc1nc(Cl)nc2c1ncn2[C@H]1C[C@H](O)[C@@H](CO)O1 [Cladribine]
The cell viability of the first is higher: 98.7% for the first, 24.2% for the second.

`NCCCC(N)(C(=O)O)C(F)F` (stereo unspecified) [Difluoromethylornithine] showed a cell viability of 100%.

Same assay, conditions: 10000 nM; 72 h

First: COc1ccc(S(=O)(=O)N2CCN(S(=O)(=O)c3ccc4c(c3)OCCO4)CC2)cc1 [BML283]
Second: O=C1O/C(=C/Br)CCC1c1cccc2ccccc12 (stereo unspecified) [Bromoenol Lactone]
The cell viability of the first is higher: 103% for the first, 44.7% for the second.

First: O=c1cc(-c2ccccc2)oc2cc(O)c(O)c(O)c12 [Baicalein]
Second: O=c1oc2c(O)c(O)cc3c(=O)oc4c(O)c(O)cc1c4c23 [Benzoaric Acid]
The cell viability of the first is lower: 85.9% for the first, 100% for the second.

Compared with `COC(=O)[C@]12CCC(C)(C)C[C@H]1[C@H]1C(=O)C=C3[C@@]4(C)C=C(C#N)C(=O)C(C)(C)[C@@H]4CC[C@@]3(C)[C@]1(C)CC2` [Bardoxolone methyl], `CC(C)c1cc2c(c(O)c1O)[C@@]1(C(=O)O)CCCC(C)(C)[C@@H]1CC2` [Carnosic acid] is higher in cell viability: 56.3% for the first, 66.9% for the second.

First: Cc1c(-c2ccc(-c3ccccc3F)cc2)nc2ccc(F)cc2c1C(=O)O [Brequinar]
Second: O=C(O)CCCCC(CCSCc1ccccc1)SCc1ccccc1 (stereo unspecified) [CPI-613]
The cell viability of the first is lower: 83.3% for the first, 97.3% for the second.

Compared with `CCN(CC)CCCC(C)Nc1ccnc2cc(Cl)ccc12` (stereo unspecified) [Chloroquine], `Nc1nc(Cl)nc2c1ncn2[C@H]1C[C@H](O)[C@@H](CO)O1` [Cladribine] is lower in cell viability: 98.5% for the first, 26.3% for the second.

`NCCCC(N)(C(=O)O)C(F)F` (stereo unspecified) [Difluoromethylornithine] was tested, and the cell viability was 104%.

These compounds were tested on LAMA-84 in the same assay as above. Details: 1 nM; 72 h.
Outline: as §1

`COc1ccc(S(=O)(=O)N2CCN(S(=O)(=O)c3ccc4c(c3)OCCO4)CC2)cc1` [BML283] and `O=C1O/C(=C/Br)CCC1c1cccc2ccccc12` (stereo unspecified) [Bromoenol Lactone] are the same in cell viability: 101% for the first, 101% for the second.

Compared with `O=c1cc(-c2ccccc2)oc2cc(O)c(O)c(O)c12` [Baicalein], `O=c1oc2c(O)c(O)cc3c(=O)oc4c(O)c(O)cc1c4c23` [Benzoaric Acid] is higher in cell viability: 98.2% for the first, 101% for the second.

First: COC(=O)[C@]12CCC(C)(C)C[C@H]1[C@H]1C(=O)C=C3[C@@]4(C)C=C(C#N)C(=O)C(C)(C)[C@@H]4CC[C@@]3(C)[C@]1(C)CC2 [Bardoxolone methyl]
Second: CC(C)c1cc2c(c(O)c1O)[C@@]1(C(=O)O)CCCC(C)(C)[C@@H]1CC2 [Carnosic acid]
The cell viability of the first is higher: 98.9% for the first, 97.7% for the second.

Compared with `Cc1c(-c2ccc(-c3ccccc3F)cc2)nc2ccc(F)cc2c1C(=O)O` [Brequinar], `O=C(O)CCCCC(CCSCc1ccccc1)SCc1ccccc1` (stereo unspecified) [CPI-613] is higher in cell viability: 97.3% for the first, 106% for the second.

Compared with `CCN(CC)CCCC(C)Nc1ccnc2cc(Cl)ccc12` (stereo unspecified) [Chloroquine], `Nc1nc(Cl)nc2c1ncn2[C@H]1C[C@H](O)[C@@H](CO)O1` [Cladribine] is higher in cell viability: 105% for the first, 112% for the second.

Compound `NCCCC(N)(C(=O)O)C(F)F` (stereo unspecified) [Difluoromethylornithine] has a cell viability of 107%.

Same assay, conditions: 10 nM; 72 h

First: COc1ccc(S(=O)(=O)N2CCN(S(=O)(=O)c3ccc4c(c3)OCCO4)CC2)cc1 [BML283]
Second: O=C1O/C(=C/Br)CCC1c1cccc2ccccc12 (stereo unspecified) [Bromoenol Lactone]
The cell viability of the first is lower: 93.8% for the first, 99.2% for the second.

Going from `O=c1cc(-c2ccccc2)oc2cc(O)c(O)c(O)c12` [Baicalein] to `O=c1oc2c(O)c(O)cc3c(=O)oc4c(O)c(O)cc1c4c23` [Benzoaric Acid], the cell viability falls from 99.6% to 95.9%.

First: COC(=O)[C@]12CCC(C)(C)C[C@H]1[C@H]1C(=O)C=C3[C@@]4(C)C=C(C#N)C(=O)C(C)(C)[C@@H]4CC[C@@]3(C)[C@]1(C)CC2 [Bardoxolone methyl]
Second: CC(C)c1cc2c(c(O)c1O)[C@@]1(C(=O)O)CCCC(C)(C)[C@@H]1CC2 [Carnosic acid]
The cell viability of the first is lower: 96.1% for the first, 98% for the second.

First: Cc1c(-c2ccc(-c3ccccc3F)cc2)nc2ccc(F)cc2c1C(=O)O [Brequinar]
Second: O=C(O)CCCCC(CCSCc1ccccc1)SCc1ccccc1 (stereo unspecified) [CPI-613]
The cell viability of the first is lower: 98.2% for the first, 98.3% for the second.

Compared with `CCN(CC)CCCC(C)Nc1ccnc2cc(Cl)ccc12` (stereo unspecified) [Chloroquine], `Nc1nc(Cl)nc2c1ncn2[C@H]1C[C@H](O)[C@@H](CO)O1` [Cladribine] is lower in cell viability: 101% for the first, 100% for the second.

`NCCCC(N)(C(=O)O)C(F)F` (stereo unspecified) [Difluoromethylornithine] was tested, and the cell viability was 99.2%.

Same assay, conditions: 100 nM; 72 h

Going from `COc1ccc(S(=O)(=O)N2CCN(S(=O)(=O)c3ccc4c(c3)OCCO4)CC2)cc1` [BML283] to `O=C1O/C(=C/Br)CCC1c1cccc2ccccc12` (stereo unspecified) [Bromoenol Lactone], the cell viability falls from 100% to 99.9%.

First: O=c1cc(-c2ccccc2)oc2cc(O)c(O)c(O)c12 [Baicalein]
Second: O=c1oc2c(O)c(O)cc3c(=O)oc4c(O)c(O)cc1c4c23 [Benzoaric Acid]
The cell viability of the first is lower: 94.4% for the first, 98.9% for the second.

First: COC(=O)[C@]12CCC(C)(C)C[C@H]1[C@H]1C(=O)C=C3[C@@]4(C)C=C(C#N)C(=O)C(C)(C)[C@@H]4CC[C@@]3(C)[C@]1(C)CC2 [Bardoxolone methyl]
Second: CC(C)c1cc2c(c(O)c1O)[C@@]1(C(=O)O)CCCC(C)(C)[C@@H]1CC2 [Carnosic acid]
The cell viability of the first is higher: 107% for the first, 102% for the second.

First: Cc1c(-c2ccc(-c3ccccc3F)cc2)nc2ccc(F)cc2c1C(=O)O [Brequinar]
Second: O=C(O)CCCCC(CCSCc1ccccc1)SCc1ccccc1 (stereo unspecified) [CPI-613]
The cell viability of the first is lower: 94.2% for the first, 96.5% for the second.

First: CCN(CC)CCCC(C)Nc1ccnc2cc(Cl)ccc12 (stereo unspecified) [Chloroquine]
Second: Nc1nc(Cl)nc2c1ncn2[C@H]1C[C@H](O)[C@@H](CO)O1 [Cladribine]
The cell viability of the first is higher: 101% for the first, 51.1% for the second.

With `NCCCC(N)(C(=O)O)C(F)F` (stereo unspecified) [Difluoromethylornithine] the cell viability was 91.8%.

Same assay, conditions: 1000 nM; 72 h

First: COc1ccc(S(=O)(=O)N2CCN(S(=O)(=O)c3ccc4c(c3)OCCO4)CC2)cc1 [BML283]
Second: O=c1cc(-c2ccccc2)oc2cc(O)c(O)c(O)c12 [Baicalein]
The cell viability of the first is lower: 103% for the first, 104% for the second.

Going from `COC(=O)[C@]12CCC(C)(C)C[C@H]1[C@H]1C(=O)C=C3[C@@]4(C)C=C(C#N)C(=O)C(C)(C)[C@@H]4CC[C@@]3(C)[C@]1(C)CC2` [Bardoxolone methyl] to `O=c1oc2c(O)c(O)cc3c(=O)oc4c(O)c(O)cc1c4c23` [Benzoaric Acid], the cell viability falls from 106% to 94.6%.
